Results: patent publication US12084444B2, “Spiro-lactam NMDA modulators and methods of using same” (Tenacia Biotechnology (Hong Kong) Co., Limited, priority 2016, dated 2024)

Key:
[1] = test system: Sprague Dawley rats; experiment: Porsolt forced swim test; assay type: in vivo; conditions: 1 h post-dose, 20 mg/kg, dosed 3 times (24 h, 5 h and 1 h) prior to testing
Procedure: A non-clinical in vivo pharmacology study (Porsolt assay) was performed to measure antidepressant-like effects. A negative control (0.5% sodium carboxymethyl cellulose in 0.9% sterile saline vehicle) and a positive control (fluoxetine) are shown for comparison against test compound. The study allowed for the evaluation of the effects of each compound on the Porsolt forced swim test as assessed by the rats' response (reduced floating time) during a 5-minute swimming test.
(§1) Male 2-3 month old Sprague Dawley rats were used (Harlan, Indianapolis, IN). Rats were housed in Lucite cages with aspen wood chip bedding, maintained on a 12:12 light:dark cycle (lights on at 5 AM), and given ad libitum access to Purina lab chow (USA) and tap water throughout the study.
The Porsolt forced swim test adapted for use in rats was performed as described by Burgdorf et al., (The long-lasting antidepressant effects of rapastinel (GLYX-13) are associated with a metaplasticity process in the medial prefrontal cortex and hippocampus. Neuroscience 308:202-211, 2015). Animals were placed in a 46 cm tall×20 cm in diameter clear glass tube filled to 30 cm with tap water (23±1° C.) for 15 min on the first day (habituation) and 5 min on the subsequent test day. Positive control fluoxetine was dosed 3 times (24 h, 5 h and 1 h) prior to testing. Animals were tested 1 h or 24 h post-dosing with the test compounds or vehicle. Animals received a 15 min habituation session 1 day before the 5 min test. Water was changed after every other animal. Animals were videotaped, and floating time as defined as the minimal amount of effort required to keep the animals head above water was scored offline by a blinded experimenter with high inter-rater reliability (Pearson's r>0.9).
Each compound tested at dose level shown. Significance vs. vehicle group for each experiment is marked. […] A compound marked “No” was not statistically significant from vehicle. Data was averaged for test compound and vehicle groups (N approximately 8 per group) and the percent reduction in floating for group treated with test compound relative to group treated with vehicle is shown.

[2] = target: T1, NMDAR2A expressing HEK cell membranes (Homo sapiens, UniProt Q12879); experiment: NMDAR agonist assay, [3H]MK-801 binding, NMDAR2A; assay type: biochemical; parameters: key to NMDAR2A B: log EC50: 0=−; ≥1×10^−9 M (e.g., −8)=+; <1×10^−9 M (e.g., −10)=++; conditions: 50 μM glutamate
T1 construct: expressed in transfected cells; host or cells: HEK cells (membrane extract)
T1 sequence (Q12879 23-1464, other chains not shown): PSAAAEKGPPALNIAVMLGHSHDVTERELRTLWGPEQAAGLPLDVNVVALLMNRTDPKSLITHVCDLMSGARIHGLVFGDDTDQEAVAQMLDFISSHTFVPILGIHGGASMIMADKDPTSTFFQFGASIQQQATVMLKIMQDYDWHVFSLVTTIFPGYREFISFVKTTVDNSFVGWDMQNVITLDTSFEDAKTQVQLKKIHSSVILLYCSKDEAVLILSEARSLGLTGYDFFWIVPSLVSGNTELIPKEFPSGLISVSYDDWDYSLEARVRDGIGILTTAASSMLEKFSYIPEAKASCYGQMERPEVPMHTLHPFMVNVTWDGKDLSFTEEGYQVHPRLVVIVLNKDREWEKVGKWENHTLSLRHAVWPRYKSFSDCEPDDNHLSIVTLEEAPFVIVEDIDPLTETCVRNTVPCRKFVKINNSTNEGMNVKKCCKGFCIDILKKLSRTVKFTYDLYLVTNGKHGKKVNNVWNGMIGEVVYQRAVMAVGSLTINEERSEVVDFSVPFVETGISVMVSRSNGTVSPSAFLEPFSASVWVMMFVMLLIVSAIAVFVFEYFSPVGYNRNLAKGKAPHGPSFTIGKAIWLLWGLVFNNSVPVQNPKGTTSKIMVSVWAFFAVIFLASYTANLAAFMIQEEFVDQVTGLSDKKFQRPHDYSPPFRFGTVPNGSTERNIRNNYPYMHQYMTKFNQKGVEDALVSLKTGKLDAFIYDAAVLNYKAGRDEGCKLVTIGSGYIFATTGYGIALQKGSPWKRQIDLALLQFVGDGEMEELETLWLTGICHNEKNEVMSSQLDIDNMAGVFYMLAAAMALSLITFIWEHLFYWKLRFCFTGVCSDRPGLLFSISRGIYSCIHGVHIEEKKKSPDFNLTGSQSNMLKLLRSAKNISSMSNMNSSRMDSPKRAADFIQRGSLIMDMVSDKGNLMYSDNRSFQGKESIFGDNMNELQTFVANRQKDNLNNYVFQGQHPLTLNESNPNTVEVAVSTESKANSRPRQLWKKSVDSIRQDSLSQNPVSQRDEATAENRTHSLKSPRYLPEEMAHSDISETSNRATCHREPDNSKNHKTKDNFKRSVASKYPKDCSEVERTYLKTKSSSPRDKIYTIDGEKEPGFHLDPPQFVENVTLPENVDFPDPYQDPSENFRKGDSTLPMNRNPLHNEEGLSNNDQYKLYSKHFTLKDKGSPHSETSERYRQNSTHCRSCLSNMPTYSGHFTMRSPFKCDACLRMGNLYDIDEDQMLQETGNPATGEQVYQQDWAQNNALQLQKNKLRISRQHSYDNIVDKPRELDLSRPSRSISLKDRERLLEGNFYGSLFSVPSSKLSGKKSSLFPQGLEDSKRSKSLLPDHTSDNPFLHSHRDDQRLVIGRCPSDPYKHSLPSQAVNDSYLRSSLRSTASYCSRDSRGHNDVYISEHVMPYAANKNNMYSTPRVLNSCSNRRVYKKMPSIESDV
Procedure: (§2) Assays were conducted as described by Moskal et al., “GLYX-13: a monoclonal antibody-derived peptide that acts as an N-methyl-D-aspartate receptor modulator,” Neuropharmacology, 49, 1077-87, 2005. These studies were designed to determine if the test compounds act to facilitate NMDAR activation in NMDAR2A, NMDAR2B, NMDAR2C or NMDAR2D expressing HEK cell membranes as measured by increases in [^3H]MK-801 binding.
(§3) In the assay, 300 μg of NMDAR expressing HEK cell membrane extract protein was preincubated for 15 minutes at 25° C. in the presence of saturating concentrations of glutamate (50 μM) and varying concentrations of test compound (1×10^−15 M-1×10^−7 M), or 1 mM glycine. Following the addition of 0.3 μCi of [^3H]MK-801 (22.5 Ci/mmol), reactions were again incubated for 15 minutes at 25° C. (nonequilibrium conditions). Bound and free [^3H]MK-801 were separated via rapid filtration using a Brandel apparatus.
(§4) In analyzing the data, the DPM (disintegrations per minute) of [^3H]MK-801 remaining on the filter were measured for each concentration of test compound or for 1 mM glycine. The DPM values for each concentration of a ligand (N=2) were averaged. The baseline value was determined from the best fit curve of the DPM values modeled using the GraphPad program and the log(agonist) vs. response(three parameters) algorithm was then subtracted from all points in the dataset. The % maximal [^3H]MK-801 binding was then calculated relative to that of 1 mM glycine: all baseline subtracted DPM values were divided by the average value for 1 mM glycine. The EC50 and % maximal activity were then obtained from the best fit curve of the % maximal [^3H]MK-801 binding data modelled using the GraphPad program and the log(agonist) vs. response(three parameters) algorithm.
(§5) The tables below summarize the results for the wild type NMDAR agonists NMDAR2A, NMDAR2B, NMDAR2C, and NMDAR2D, and whether the compound is not an agonist (−), is an agonist (+), or is a strong agonist (++), where column A is based on the % maximal [^3H]MK-801 binding relative to 1 mM glycine (−=0; <100%=+; and >100%=++); and column B is based on log EC50 values (0=−; ≥1×10^−9 M (e.g., −8)=+; and <1×10^−9 M (e.g., −10)=++).

[3] = Oral pharmacokinetics (plasma, brain, CSF); assay type: in vivo, Sprague Dawley rats; conditions: rat, per os, 10 mg/kg; for AUC(0-t) / bioavailability / Tmax / Cmax: Sprague Dawley, plasma, po; for Tmax: normal saline
Procedure: In another experiment, Sprague Dawley rats were dosed per os using a normal saline formulation containing 10 mg/kg of the compounds identified in the table below. Plasma, brain, and CSF samples were analyzed at various time points over a 24 hour period. The table below summarizes the results of the oral pharmacokinetics.

[4] = target: T2, NMDAR2B expressing HEK cell membranes (Homo sapiens, UniProt Q05586+Q13224); experiment: NMDAR agonist assay, [3H]MK-801 binding, NMDAR2B; assay type: biochemical; conditions: 50 μM glutamate; for EC50: read-out: NMDAR2B B: log EC50 (converted); for Emax: 0.25 h, read-out: NMDAR2B A: % maximal [3H]MK-801 binding relative to 1 mM glycine
T2 construct: expressed in transfected cells; host or cells: HEK cells (membrane extract)
T2 sequence (Q13224 27-1484, other chains not shown): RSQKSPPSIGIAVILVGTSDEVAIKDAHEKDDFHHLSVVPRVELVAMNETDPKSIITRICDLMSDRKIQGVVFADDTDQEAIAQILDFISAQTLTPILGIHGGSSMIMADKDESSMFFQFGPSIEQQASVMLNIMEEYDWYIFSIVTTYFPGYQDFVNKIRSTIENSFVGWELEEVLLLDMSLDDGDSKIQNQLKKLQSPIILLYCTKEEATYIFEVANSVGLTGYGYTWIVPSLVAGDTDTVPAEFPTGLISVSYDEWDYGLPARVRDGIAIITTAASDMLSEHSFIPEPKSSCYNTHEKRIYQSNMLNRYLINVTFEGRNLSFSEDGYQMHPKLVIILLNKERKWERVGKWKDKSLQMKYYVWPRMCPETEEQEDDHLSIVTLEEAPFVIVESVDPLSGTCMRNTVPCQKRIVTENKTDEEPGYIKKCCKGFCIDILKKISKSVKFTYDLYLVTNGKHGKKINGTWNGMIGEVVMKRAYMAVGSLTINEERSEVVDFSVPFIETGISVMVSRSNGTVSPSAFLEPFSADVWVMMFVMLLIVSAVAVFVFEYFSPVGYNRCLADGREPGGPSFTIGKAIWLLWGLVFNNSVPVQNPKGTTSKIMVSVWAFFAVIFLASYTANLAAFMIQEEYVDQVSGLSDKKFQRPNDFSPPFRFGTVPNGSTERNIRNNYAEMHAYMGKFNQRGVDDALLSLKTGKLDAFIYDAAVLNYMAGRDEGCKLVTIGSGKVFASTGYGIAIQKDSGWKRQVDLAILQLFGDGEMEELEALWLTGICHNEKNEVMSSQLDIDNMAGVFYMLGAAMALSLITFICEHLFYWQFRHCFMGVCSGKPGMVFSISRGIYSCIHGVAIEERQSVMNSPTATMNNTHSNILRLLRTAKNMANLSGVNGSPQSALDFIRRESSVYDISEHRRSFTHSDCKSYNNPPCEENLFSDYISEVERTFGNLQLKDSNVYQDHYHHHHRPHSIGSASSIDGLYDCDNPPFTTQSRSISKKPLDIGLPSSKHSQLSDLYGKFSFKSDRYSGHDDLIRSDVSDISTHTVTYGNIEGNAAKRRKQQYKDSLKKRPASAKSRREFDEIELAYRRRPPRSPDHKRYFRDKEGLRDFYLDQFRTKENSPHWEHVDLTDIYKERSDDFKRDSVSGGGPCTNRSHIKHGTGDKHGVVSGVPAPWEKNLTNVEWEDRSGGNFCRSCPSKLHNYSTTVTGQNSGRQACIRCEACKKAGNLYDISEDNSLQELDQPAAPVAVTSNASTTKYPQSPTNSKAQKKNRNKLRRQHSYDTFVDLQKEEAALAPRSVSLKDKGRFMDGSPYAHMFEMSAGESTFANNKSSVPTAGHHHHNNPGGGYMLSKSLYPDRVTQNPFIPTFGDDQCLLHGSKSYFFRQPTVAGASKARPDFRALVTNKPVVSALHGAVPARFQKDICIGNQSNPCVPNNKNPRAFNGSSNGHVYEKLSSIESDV
Procedure: as §2, §3, §4, §5

[5] = IV pharmacokinetics; parameters: species or system Sprague Dawley rats; conditions: Sprague Dawley, in vivo, rat, 2 mg/kg, normal saline; for Vd: read-out: Vss
Procedure: Sprague Dawley rats were dosed intravenously using a normal saline formulation containing 2 mg/kg of the compounds identified in the below table. The table below summarizes the results of the IV pharmacokinetics.

[6] = target: T3, NMDAR2A expressing HEK cell membranes (Homo sapiens, UniProt Q05586+Q12879); experiment: NMDAR agonist assay, [3H]MK-801 binding, NMDAR2A; assay type: biochemical; parameters: key to NMDAR2A B: log EC50: 0=−; ≥1×10^−9 M (e.g., −8)=+; <1×10^−9 M (e.g., −10)=++; conditions: 50 μM glutamate; for EC50: read-out: NMDAR2A B: log EC50 (converted); for Emax: 0.25 h, read-out: NMDAR2A A: % maximal [3H]MK-801 binding relative to 1 mM glycine
T3 construct: expressed in transfected cells; host or cells: HEK cells (membrane extract)
T3 sequence (Q12879 23-1464, other chains not shown): as the sequence (Q12879 23-1464, other chains not shown) above
Procedure: as §2, §3, §4, §5

[7] = test system: Sprague Dawley rats; experiment: Bennett model of mechanical analgesia (sciatic nerve chronic constriction injury); assay type: in vivo; conditions: 150 mg/kg PO
Procedure: The Bennett model of mechanical analgesia is used to assess the analgesic effects of compounds as measured by paw withdrawal threshold. Bennett G J, Xie Y K, “A peripheral mononeuropathy in rat that produces disorders of pain sensation like those seen in man,” Pain 33:87-107, 1988. […] Vehicle animals receive the surgery and then receive vehicle rather than test compound. Animals were tested 1 hr, 24 h and 1 wk post-test compound or vehicle administration.
as §1, with “used. Harlan was the supplier for all studies.” for “used (Harlan, Indianapolis, IN).”
Rats were anesthetized using inhaled isoflurane (2.5%). Sciatic nerve chronic constriction nerve injury surgery was performed as previously described (Bennett and Xie, 1988). An incision (˜1.5 cm in length) was made with a scalpel blade dorsally through skin on the right hind limb, parallel and posterior to femur. Using a small pointed hemostat, the biceps femoris and gluteus superficialis muscles were separated. Using curved blunt forceps, the common sciatic nerve was isolated and exposed. For the mechanical analgesia studies, the whole sciatic nerve was ligated. Using hemostats/forceps and chromic gut (5-0), the nerve was loosely ligated with a square knot; 3 ligatures, 1 mm apart were placed on the nerve. […] Testing occurred approximately 2 weeks post-surgery.
During testing, rats were acclimated to the surface of a suspended wire mesh grid (1 cm×1 cm, with the wire being 0.3 cm in diameter) for 15-20 min. Starting from the smallest, each Von Frey filament was pressed perpendicularly to the plantar surface of the affected (ipsilateral) hind paw until slightly bent and then held for 6 second. If an obvious hind paw withdrawal or a flinching behavior immediately after the withdrawal of the filament was not observed, the next larger filament was used in the same manner. In case of a response, a lower filament was used. This was repeated until six responses were collected.
For all studies, animals were baselined prior to study start to test for allodynia (defined as a paw withdrawal threshold under 5). A subset of animals was tested with gabapentin (150 mg/kg, PO) to ensure at least 50% analgesia. Once it was confirmed animals were ready for study initiation, animals were balanced across groups. All study investigators were blind to treatment conditions. Animals were dosed with 0.1, 1, 10, or 30 mg/kg of test compound via oral gavage (PO), control sets of animals were dosed with gabapentin (150 mg/kg, PO) or vehicle (0.5% Na-CMC in 0.9% sterile saline, PO). Testing occurred 1 h post-dosing with animals retested 24 hrs and 1 week post-dosing. The percent analgesia calculations for each animal were made using the following equation: % analgesia=[(log(x)−y)/((log (z)−y)]*100, where x=the paw withdrawal threshold for the drug-treated animal in grams, y=the average of the log(x) values for the vehicle treated group, and z=the paw withdrawal threshold for naïve animals in grams (historical value of 15 used). The results for Compound AA-2, where the percentage of analgesia is measured at 1 hour, 24 hours, and 1 week after compound administration are as follows: for 0.1 mg/kg dose: 22.3% at 1 h, 1.6% at 24 h, and 2.3% at 1 wk; for 1 mg/kg dose: 19.2% at 1 h, 10.7% at 24 h, and 11.0% at 1 wk; for 10 mg/kg dose: 38.1% at 1 h, 24.3% at 24 h, and 41.4% at 1 wk; and for 30 mg/kg dose: 24.4% at 1 h, 8.7% at 24 h, and 34.5% at 1 wk.

In the case of `CNCCC(Oc1ccc(C(F)(F)F)cc1)c1ccccc1` (centres unmarked) [Fluoxetine, fluoxetine, reference compound], the “% reduction in float time” value [1] is reported as 54% and the Significance vs. vehicle [1] is reported as “Yes (found to be statistically significant (p<=0.05) from vehicle at dose level shown)”.
For `C[C@@H](O)[C@@H](C(=O)N(C)C)N1CC2(CCNC(=O)C2)C1=O` (single isomer, unassigned) [CC], the “NMDAR2A A: % maximal [3H]MK-801 binding relative to 1 mM glycine” value [2] was “− (−=0)”, the “NMDAR2A B: log EC50” value [2] was “−” and the AUC(0-t) [3] was 701 ng·h/mL. The bioavailability [3] was 7%, the Tmax [3] was 25.2 min and the Cmax [3] was 191 ng/mL. The “CSF Cmax” value [3] was 0 ng/mL, the “Brain Cmax” value [3] was 0 ng/mL and the EC50 [4] was under 1 nM. It also gave an Emax [4] of under 100%, an AUC(0-t) [5] of 2130 ng·h/mL and a C0 [5] of 7930 ng/mL. It also gave a clearance [5] of 15.7 mL/min/kg, a half-life [5] of 127 min and a Vd [5] of 0.5 L/kg.
Molecule `COc1ccc(CN2CC3(CCN(C)C(=O)C3)C2=O)cc1` (single isomer, unassigned) [CI, 2-(4-methoxybenzyl)-7-methyl-2,7-diazaspiro[3.5]nonane-1,6-dione] has an EC50 [6] of under 1 nM, an Emax [6] of under 100% and an AUC(0-t) [3] of 5060 ng·h/mL. The bioavailability [3] was 97%, the Tmax [3] was 15 min and the Cmax [3] was 5050 ng/mL. The “CSF Cmax” value [3] was 1113.94 ng/mL, the “Brain Cmax” value [3] was 996.66 ng/mL and the EC50 [4] was under 1 nM. For the same molecule, the Emax [4] was under 100%, the AUC(0-t) [5] was 1040 ng·h/mL and the C0 [5] was 2120 ng/mL. For the same molecule, the clearance [5] was 32 mL/min/kg, the half-life [5] was 25.2 min and the Vd [5] was 0.91 L/kg.
Molecule `CCN1CCC2(CC1=O)CN(Cc1ccc(OC)cc1)C2=O` (single isomer, unassigned) [CL, 7-ethyl-2-(4-methoxybenzyl)-2,7-diazaspiro[3.5]nonane-1,6-dione] has an EC50 [6] of under 1 nM, an Emax [6] of under 100% and an AUC(0-t) [3] of 1430 ng·h/mL. For the same molecule, the bioavailability [3] was 37%, the Tmax [3] was 15 min and the Cmax [3] was 1800 ng/mL. For the same molecule, the “CSF Cmax” value [3] was 866.42 ng/mL, the “Brain Cmax” value [3] was 707.6 ng/mL and the EC50 [4] was under 1 nM. It also gave an Emax [4] of under 100%, an AUC(0-t) [5] of 772 ng·h/mL and a C0 [5] of 2690 ng/mL. It also gave a clearance [5] of 41.7 mL/min/kg, a half-life [5] of 12.6 min and a Vd [5] of 0.7 L/kg.
In the case of `NCC1(CC(=O)O)CCCCC1` [gabapentin, reference compound], the “% analgesia, for the study” value ([7]; 1 week post-administration) is reported as “under 5%”, the “% analgesia, example (typical) control value” (shortened to “% analgesia, example”) ([7]; 1 wk) is reported as 0% and the “% analgesia, example” value ([7]; 1 h) is reported as 72%. The “% analgesia, for the study” value ([7]; 1 h post-administration) was “at least 50%”, the “% analgesia, example” value ([7]; 24 h) was 16% and the “% analgesia, for the study” value ([7]; 24 h post-administration) was “under 5%”.
With `C[C@@H](O)[C@@H](C(=O)NCc1ccccc1)N1CC2(CCNC(=O)C2)C1=O` (single isomer, unassigned) [CB] the Emax [6] was 0%, the “NMDAR2A B: log EC50” value [2] was “−” and the AUC(0-t) [3] was 297 ng·h/mL. It also gave a bioavailability [3] of 5%, a Tmax [3] of 30 min and a Cmax [3] of 143 ng/mL. For the same molecule, the “CSF Cmax” value [3] was 31.02 ng/mL, the “Brain Cmax” value [3] was 7.38 ng/mL and the EC50 [4] was under 1 nM. The Emax [4] was under 100%, the AUC(0-t) [5] was 1320 ng·h/mL and the C0 [5] was 4320 ng/mL. It also gave a clearance [5] of 25.3 mL/min/kg, a half-life [5] of 106 min and a Vd [5] of 1.2 L/kg.
